Test results: ChEMBL document CHEMBL3045567, “Heterocycles 23: Synthesis, characterization and anticancer activity of new hydrazinoselenazole derivatives” (Med Chem Res, 2013)

What was measured:
DU-145 = assay: Cytotoxicity against human DU145 cells after 72 hrs by XTT assay; type: functional, cell-based; settings: DU-145, 72 h
HepG2 = assay: Cytotoxicity against human HepG2 cells after 72 hrs by XTT assay; type: functional, cell-based; settings: HepG2, 72 h

Compound	IC50 (DU-145) [µM]	IC50 (HepG2) [µM]
CC(=O)N(C(=O)c1ccccc1)N(C(C)=O)c1nc(-c2ccccc2)c[se]1	> 58.6	> 58.6
CC(=O)N(C(=O)c1ccc(Cl)cc1)N(C(C)=O)c1nc(C)c[se]1	> 62.7	> 62.7
CC(=O)N(C(=O)c1ccc(Cl)cc1)N(C(C)=O)c1nc(-c2ccccc2)c[se]1	> 54.3	> 54.3
CC(=O)N(/N=C/c1ccc(Cl)cc1)c1nc(CCl)c[se]1	64.7	> 66.7
CC(=O)N(/N=C/c1ccc(Cl)cc1)c1nc(-c2ccccc2)c[se]1	> 62.1	> 62.1
CCOC(=O)c1[se]c(N(/N=C/c2ccc(Cl)cc2)C(C)=O)nc1C	> 60.6	55.1
COc1ccc(/C=N/N(C(C)=O)c2nc(C)c[se]2)cc1	> 74.4	> 74.4
COc1ccc(/C=N/N(C(C)=O)c2nc(-c3ccccc3)c[se]2)cc1	> 62.8	> 62.8
CC(=O)N(/N=C/c1csc(-c2ccccc2)n1)c1nc(CCl)c[se]1	19.6	19.3
CC(=O)c1[se]c(N(/N=C/c2csc(-c3ccccc3)n2)C(C)=O)nc1C	31.3	29.4
NC(=[Se])NNC(=O)c1ccc(Cl)cc1	7.59	10.7
Cc1c[se]c(NNC(=O)c2ccccc2)n1	> 89.2	> 89.2
O=C(NNc1nc(-c2ccccc2)c[se]1)c1ccccc1	> 73	> 73
Cc1c[se]c(NNC(=O)c2ccc(Cl)cc2)n1	> 79.5	> 79.5
O=C(NNc1nc(-c2ccccc2)c[se]1)c1ccc(Cl)cc1	65.1	62.9
CC(=O)N(C(=O)c1ccccc1)N(C(C)=O)c1nc(C)c[se]1	> 68.6	> 68.6

Compound	IC50 (DU-145) [µM]	IC50 (HepG2) [µM]
NC(=[Se])N/N=C/c1ccc(Cl)cc1	8.63	13
COc1ccc(/C=N/NC(N)=[Se])cc1	30.3	11.3
NC(=[Se])N/N=C/c1csc(-c2ccccc2)n1	6.14	9.18
Cc1c[se]c(N/N=C/c2ccc(Cl)cc2)n1	49.4	56.5
ClCc1c[se]c(N/N=C/c2ccc(Cl)cc2)n1	> 75.1	> 75.1
Clc1ccc(/C=N/Nc2nc(-c3ccccc3)c[se]2)cc1	54.2	42.5
CCOC(=O)c1[se]c(N/N=C/c2ccc(Cl)cc2)nc1C	47.7	52.8
COc1ccc(/C=N/Nc2nc(C)c[se]2)cc1	> 85	83.2
COc1ccc(/C=N/Nc2nc(-c3ccccc3)c[se]2)cc1	50.9	50.5
ClCc1c[se]c(N/N=C/c2csc(-c3ccccc3)n2)n1	16.4	18.8
CC(=O)c1[se]c(N/N=C/c2csc(-c3ccccc3)n2)nc1C	49.9	61.3
CC(=O)N(/N=C/c1ccc(Cl)cc1)c1nc(C)c[se]1	60.6	59.2
NC(=[Se])NNC(=O)c1ccccc1 [BENZOYL-SELENOSEMICARBAZIDE]	35.1	34.8
NC(=[Se])N/N=C/c1ccccc1 [BENZYLIDEN-SELENOSEMICARBAZIDE]	40.8	39.1
COc1cccc2c1C(=O)c1c(O)c3c(c(O)c1C2=O)C[C@@](O)(C(=O)CO)C[C@@H]3O[C@H]1C[C@H](N)[C@H](O)[C@H](C)O1 [DOXORUBICIN]	3.27	4.89
